Laboratory results as given in patent US20250340743A1, “Polyetheramine-Based Multifunctional Booster” (Troy Technology II, Inc., priority 2022, published 2025).
Where two headings read alike, the source gives them in different places.

Test system: Pseudomonas aeruginosa (ATCC #10145)
Assay: MIC via microbroth dilution
Format: cell-based
Procedure: To examine the preservative boosting potential of these dispersions, minimum inhibitory concentration (MIC) testing was performed. MICs were determined via microbroth dilution using the following specific test parameters:
Necessary organism dilutions via OD600 were calculated based on OD600 of 1.0 being equivalent to 8×10^8 CFU/mL. Biocide dilutions were performed in 2-fold increments for each assay.

SMILES | Fold Reduction of MIC over control without booster (Table 7, with 0.075% “1737-72”:AMP95 (1:1)) | Fold Reduction of MIC over control without booster (Table 7, with 0.15% “1737-72”:AMP95 (1:1)) | fold lower MIC values (biocide in combination with magnesium oxide version “1737-34”) | Fold Reduction of MIC over control without booster | fold lower MIC values
O=c1[nH]sc2ccccc12 [BIT, 1,2-benzisothiazolin-3-one] | 2 fold | 2 fold | 2 fold | – | –
[Na+].[O-][n+]1ccccc1[S-] [sodium pyrithione] | – | – | – | 64 fold | clearly antagonistic
